According to ChEMBL document CHEMBL5260816, “Synthesis and biological evaluation of the natural product komaroviquinone and related compounds aiming at a potential therapeutic lead compound for high-risk multiple myeloma” (Bioorg Med Chem Lett, 2017):

Tests used:
[1] = Toxicity in ICR mouse bone marrow cells assessed as inhibition of cell differentiation at 1 uM incubated for 14 days by colony forming cell assay; assay type: cell-based; conditions: 336 h, time 14 day
[2] = Cytotoxicity against human MUM24 cells assessed as reduction in cell viability incubated for 48 hrs by MTT assay; assay type: functional, cell-based; conditions: MUM24, 48 h
[3] = Toxicity in ICR mouse bone marrow cells assessed as inhibition of cell differentiation at higher concentration incubated for 14 days by colony forming cell assay; assay type: cell-based; conditions: 336 h, time 14 day
[4] = Toxicity in ICR mouse bone marrow cells assessed as inhibition of cell differentiation incubated for 14 days by colony forming cell assay; assay type: cell-based; conditions: 336 h, time 14 day

## COC1=C(C(C)C)C(=O)C2=C(C[C@@]34CCCC(C)(C)[C@@H]3C[C@]2(O)O4)C1=O [KOMAROVIQUINONE]
[1]
  Activity: Toxic
[2]
  IC50: 0.65 µM

## COc1c2c(c(OC)c(C(C)C)c1OC)C(=O)C[C@H]1C(C)(C)CCC[C@]1(O)C2
[2]
  IC50: > 10 µM

## COc1c2c(c(OC)c(C(C)C)c1OC)C(=O)CCC2
[2]
  IC50: > 30 µM

## COC1=C(C(C)C)C(=O)C=C(C[C@@]23CCCC(C)(C)[C@@H]2CC(=O)O3)C1=O
[2]
  IC50: < 3 µM

## COC1=C(C(C)C)C(=O)C=C(CNC(=O)C2CCCCC2)C1=O
[2]
  IC50: < 3 µM

## COC1=C(C(C)C)C(=O)C=C(COC(Cn2cncn2)c2ccc(F)cc2F)C1=O (centres undefined)
[2]
  IC50: 3.31 µM

## COc1c(OC(C)=O)c2c(c(O)c1C(C)C)C(=O)C[C@H]1C(C)(C)CCC[C@]1(O)C2
[2]
  IC50: 12.5 µM

## COc1cc(COC(Cn2cncn2)c2ccc(F)cc2F)c(OC)c(OC)c1C(C)C (centres undefined)
[3]
  Activity: Non-Toxic
[2]
  IC50: 7 µM

## COC1=C(C(C)C)C(=O)C=C(CC(O)(Cn2cncn2)c2ccc(F)cc2F)C1=O (centres undefined)
[4]
  Activity: Toxic
[2]
  IC50: 2.49 µM

## COC1=C(C(C)C)C(=O)c2ccc(-c3ccccc3)nc2C1=O
[2]
  IC50: 4.12 µM

## COC1=C(C(C)C)C(=O)C=C(COC(C)C)C1=O
[2]
  IC50: < 3 µM

## COc1c2c(c(OC)c(C(C)C)c1OC)C(=O)CCCC2
[2]
  IC50: > 30 µM

## COC1=C(C(C)C)C(=O)c2cc3c(nc2C1=O)CCCC3
[2]
  IC50: 1.39 µM

## COc1cc(C[C@@]23CCCC(C)(C)[C@@H]2CC(=O)O3)c(OC)c(OC)c1C(C)C
[2]
  IC50: 4.97 µM

## COC1=C(C(C)C)C(=O)C=C(Cc2ccccc2)C1=O
[2]
  IC50: < 3 µM

## COc1c(OC(C)=O)c2c(c(OC(C)=O)c1C(C)C)C(=O)C[C@H]1C(C)(C)CCC[C@]1(O)C2
[2]
  IC50: 19.4 µM

## COc1cc(CC(O)(Cn2cncn2)c2ccc(F)cc2F)c(OC)c(OC)c1C(C)C (centres undefined)
[3]
  Activity: Non-Toxic
[2]
  IC50: 9.85 µM

## COc1cc(CC2=CCCC(C)(C)[C@@H]2CC(=O)O)c(OC)c(OC)c1C(C)C
[2]
  IC50: > 10 µM

## COc1c(O)c2c(c(O)c1C(C)C)C(=O)C[C@H]1C(C)(C)CCC[C@]1(O)C2
[4]
  Activity: Toxic
[2]
  IC50: 6.13 µM
